Laboratory results from US11708348B2, “Protease inhibitors for treatment of coronavirus infections” (The Scripps Research Institute, priority 2021, dated 2023).
Read-outs that look alike come from different tables or passages of the source.

Tested on: SARS-CoV-2 strain USA-WA1/2020
Assay: microbe, parasite or virus in culture
Format: cell-based
Conditions: read-out: EC50, uM (Hela)
[1] = Severe acute respiratory syndrome coronavirus 2, HeLa-ACE2, 24 h, HeLa-ACE2 cells, SARS-CoV-2 infection, 24 h, class symbols
[2] = Severe acute respiratory syndrome coronavirus 2, HeLa-ACE2, 24 h, HeLa-ACE2 cells, SARS-CoV-2 infection, 24 h, given as bound
[3] = Severe acute respiratory syndrome coronavirus 2, HeLa-ACE2, 24 h, HeLa-ACE2 cells, SARS-CoV-2 infection, 24 h

SMILES	EC50 [1] [µM]	EC50 [3] [µM]	further results
CC(C)C[C@H](NC(=O)OCc1ccccc1)C(=O)N[C@@H](C[C@@H]1CCNC1=O)C(=O)COc1c(F)c(F)cc(F)c1F [Compound 15, benzyl ((S)-4-methyl-1-oxo-1-(((S)-3-oxo-1-((S)-2-oxopyrrolidin-3-yl)-4-(2,3,5,6-tetrafluorophenoxy)butan-2-yl)amino)pentan-2-yl)carbamate]	0.2 to 0.5	–	–
CC(C)(C)NC(=O)C(=O)N1CC2(COC2)C[C@H]1C(=O)N[C@@H](C[C@@H]1CCNC1=O)C(=O)COC(F)(F)F [Compound 515, (S)-6-(2-(tert-butylamino)-2-oxoacetyl)-N-((S)-3-oxo-1-((S)-2-oxopyrrolidin-3-yl)-4-(trifluoromethoxy)butan-2-yl)-2-oxa-6-azaspiro[3.4]octane-7-carboxamide]	–	–	EC50 [2]: > 1 µM
CC(C)C[C@H](NC(=O)C(=O)NCCc1ccccc1)C(=O)N[C@@H](C[C@@H]1CCNC1=O)C(=O)COc1c(F)c(F)cc(F)c1F [Compound 41, N1-((S)-4-methyl-1-oxo-1-(((S)-3-oxo-1-((S)-2-oxopyrrolidin-3-yl)-4-(2,3,5,6-tetrafluorophenoxy)butan-2-yl)amino)pentan-2-yl)-N2-phenethyloxalamide]	0.05 to 0.2	–	–
CC(C)(C)C(=O)N1CC2(CC2)C[C@H]1C(=O)N[C@@H](C[C@@H]1CCNC1=O)C(=O)COC(F)(F)F [Compound 665, (S)-N-((S)-3-oxo-1-((S)-2-oxopyrrolidin-3-yl)-4-(trifluoromethoxy)butan-2-yl)-5-pivaloyl-5-azaspiro[2.4]heptane-6-carboxamide]	–	0.05 to 0.2	–
O=C(Nc1ccccc1F)C(=O)N1CC2(CCOCC2)CC1C(=O)N[C@@H](C[C@@H]1CCNC1=O)C(=O)COC(F)(F)F (stereo partly drawn) [Compound 530, 2-(2-((2-fluorophenyl)amino)-2-oxoacetyl)-N-((S)-3-oxo-1-((S)-2-oxopyrrolidin-3-yl)-4-(trifluoromethoxy)butan-2-yl)-8-oxa-2-azaspiro[4.5]decane-3-carboxamide]	–	0.5 to 1	–
O=C1NCC[C@H]1C[C@H](NC(=O)[C@@H]1CC2(CC2)CN1C(=O)[C@H](O)c1ccccc1F)C(=O)COC(F)(F)F [Compound 410, (S)-5-((R)-2-(2-fluorophenyl)-2-hydroxyacetyl)-N-((S)-3-oxo-1-((S)-2-oxopyrrolidin-3-yl)-4-(trifluoromethoxy)butan-2-yl)-5-azaspiro[2.4]heptane-6-carboxamide]	–	0.05 to 0.2	–
CC(C)C[C@H](CC(=O)NCc1c(F)cccc1F)C(=O)N[C@@H](C[C@@H]1CCNC1=O)C(=O)COc1c(F)c(F)cc(F)c1F [Compound 55, (R)-N4-(2,6-difluorobenzyl)-2-isobutyl-N1-((S)-3-oxo-1-((S)-2-oxopyrrolidin-3-yl)-4-(2,3,5,6-tetrafluorophenoxy)butan-2-yl)succinamide]	–	–	EC50 (Severe acute respiratory syndrome coronavirus 2, HeLa-ACE2, 24 h, HeLa-ACE2 cells, SARS-CoV-2 infection, 24 h, cells given as a bound): > 1 µM
C[C@@]12C[C@@H](C(=O)N[C@@H](C[C@@H]3CCNC3=O)C(=O)COC(F)(F)F)N(C(=O)C(=O)Nc3ccccc3F)[C@@H]1C2 [Compound 581, (1R, 3S, 5R)-2-(2-((2-fluorophenyl)amino)-2-oxoacetyl)-5-methyl-N-((S)-3-oxo-1-((S)-2-oxopyrrolidin-3-yl)-4-(trifluoromethoxy)butan-2-yl)-2-azabicyclo-[3.1.0]hexane-3-carboxamide]	–	–	EC50 [2]: > 1 µM
CC(C)(C)c1cccc(C(C)(C)C(=O)N2CC3(CC3)C[C@H]2C(=O)N[C@@H](C[C@@H]2CCNC2=O)C(=O)COC(F)(F)F)c1 [Compound 455, (S)-5-(2-(3-(tert-butyl)phenyl)-2-methylpropanoyl)-N-((S)-3-oxo-1-((S)-2-oxopyrrolidin-3-yl)-4-(trifluoromethoxy)butan-2-yl)-5-azaspiro[2.4]heptane-6-carboxamide]	–	0.05 to 0.2	–
CC(C)(F)C[C@H](O)C(=O)N1CC2(CC2)C[C@H]1C(=O)N[C@@H](C[C@@H]1CCNC1=O)C(=O)COC(F)(F)F [Compound 350, (S)-5-((S)-4-fluoro-2-hydroxy-4-methylpentanoyl)-N-((S)-3-oxo-1-((S)-2-oxopyrrolidin-3-yl)-4-(trifluoromethoxy)butan-2-yl)-5-azaspiro[2.4]-heptane-6-carboxamide]	0.05 to 0.2	–	–
O=C(Nc1c(F)cccc1Cl)C(=O)N1CC2(CC2)C[C@H]1C(=O)N[C@@H](C[C@@H]1CCNC1=O)C(=O)COC(F)(F)F [Compound 603, (S)-5-(2-((2-chloro-6-fluorophenyl)amino)-2-oxoacetyl)-N-((S)-3-oxo-1-((S)-2-oxo-pyrrolidin-3-yl)-4-(trifluoromethoxy)-butan-2-yl)-5-azaspiro[2.4]heptane-6-carboxamide]	–	0.05 to 0.2	–
CC(C)(C)C[C@H](NC(=O)C(=O)NCC(F)(F)F)C(=O)N[C@@H](C[C@@H]1CCNC1=O)C(=O)COC(F)(F)F [Compound 505, N1-((S)-4,4-dimethyl-1-oxo-1-(((S)-3-oxo-1-((S)-2-oxopyrrolidin-3-yl)-4-(trifluoromethoxy)butan-2-yl)amino)pentan-2-yl)-N2-(2,2,2-trifluoroethyl)-oxalamide]	–	< 0.05	–
CC(C)(C(=O)N1CC2(CC2)C[C@H]1C(=O)N[C@@H](C[C@@H]1CCNC1=O)C(=O)COC(F)(F)F)c1cccc(C(F)(F)F)c1 [Compound 456, (S)-5-(2-methyl-2-(3-(trifluoromethyl)-phenyl)propanoyl)-N-((S)-3-oxo-1-((S)-2-oxopyrrolidin-3-yl)-4-(trifluoromethoxy)butan-2-yl)-5-azaspiro[2.4]heptane-6-carboxamide]	–	< 0.05	–
CC1(C)[C@@H]2[C@@H](C(=O)N[C@@H](C[C@@H]3CCNC3=O)C(=O)COC(F)(F)F)N(C(=O)C(O)CC(F)(F)F)C[C@@H]21 (stereo partly drawn) [Compound 391, (1R,2S,5S)-6,6-dimethyl-N-((S)-3-oxo-1-((S)-2-oxopyrrolidin-3-yl)-4-(trifluoromethoxy)butan-2-yl)-3-(4,4,4-trifluoro-2-hydroxybutanoyl)-3-azabicyclo[3.1.0]-hexane-2-carboxamide]	0.05 to 0.2	–	–
CC(C)(C)[C@H](O)C(=O)N1C[C@H]2[C@@H]([C@H]1C(=O)N[C@@H](C[C@@H]1CCNC1=O)C(=O)COC(F)(F)F)C2(C)C [Compound 345, (1R,2S,5S)-3-((S)-2-hydroxy-3,3-dimethylbutanoyl)-6,6-dimethyl-N-((S)-3-oxo-1-((S)-2-oxopyrrolidin-3-yl)-4-(trifluoromethoxy)butan-2-yl)-3-azabicyclo-[3.1.0]hexane-2-carboxamide]	< 0.05	–	–
CC1(C)[C@@H]2[C@@H](C(=O)N[C@@H](C[C@@H]3CCNC3=O)C(=O)COC(F)(F)F)N(C(=O)C(=O)NC34CC(F)(C3)C4)C[C@@H]21 [Compound 486, (1R,2S,5S)-3-(2-((3-fluorobicyclo[1.1.1]-pentan-1-yl)amino)-2-oxoacetyl)-6,6-dimethyl-N-((S)-3-oxo-1-((S)-2-oxopyrrolidin-3-yl)-4-(trifluoromethoxy)butan-2-yl)-3-azabicyclo[3.1.0]-hexane-2-carboxamide]	–	0.05 to 0.2	–
O=C1NCC[C@H]1C[C@H](NC(=O)[C@@H]1CC2(CC2)CN1C(=O)C1(O)CCC1)C(=O)COC(F)(F)F [Compound 422, (S)-5-(1-hydroxycyclobutane-1-carbonyl)-N-((S)-3-oxo-1-((S)-2-oxo-pyrrolidin-3-yl)-4-(trifluoromethoxy)butan-2-yl)-5-azaspiro[2.4]heptane-6-carboxamide]	–	0.05 to 0.2	–
CC(C)C[C@H](NC(=O)/C=C/c1ccccc1)C(=O)N[C@@H](C[C@@H]1CCNC1=O)C(=O)COc1c(F)c(F)cc(F)c1F [Compound 66, (S)-2-cinnamamido-4-methyl-N-((S)-3-oxo-1-((S)-2-oxopyrrolidin-3-yl)-4-(2,3,5,6-tetrafluorophenoxy)butan-2-yl)pentanamide]	0.05 to 0.2	–	–
O=C1NCC[C@H]1C[C@H](NC(=O)[C@@H]1[C@H]2CCC[C@H]2CN1C(=O)C1(NC(=O)C(F)(F)F)CCC1)C(=O)COC(F)(F)F [Compound 274, (1S,3aR,6aS)-N-((S)-3-oxo-1-((S)-2-oxopyrrolidin-3-yl)-4-(trifluoromethoxy)butan-2-yl)-2-(l-(2,2,2-trifluoroacetamido)-cyclobutane-1-carbonyl)octahydro-cyclopenta[c]pyrrole-l-carboxamide]	–	–	EC50: 0.2 to 0.5 µM
CC(C)C[C@H](NC(=O)C(=O)Nc1c(C2CC2)cccc1C1CC1)C(=O)N[C@@H](C[C@@H]1CCNC1=O)C(=O)COC(F)(F)F [Compound 185, N1-(2,6-dicyclopropylphenyl)-N2-((S)-4-methyl-1-oxo-1-(((S)-3-oxo-1-((S)-2-oxopyrrolidin-3-yl)-4-(trifluoromethoxy)butan-2-yl)amino)pentan-2-yl)oxalamide]	< 0.05	–	–
CO[C@@H](CC(C)C)C(=O)N1CC2(CC2)C[C@H]1C(=O)N[C@@H](C[C@@H]1CCNC1=O)C(=O)COC(F)(F)F [Compound 339, (S)-5-((S)-2-methoxy-4-methylpentanoyl)-N-((S)-3-oxo-1-((S)-2-oxopyrrolidin-3-yl)-4-(trifluoromethoxy)butan-2-yl)-5-azaspiro[2.4]heptane-6-carboxamide]	0.05 to 0.2	–	–
O=C1NCC[C@H]1C[C@H](NC(=O)[C@H](CC1CC1)NC(=O)[C@H]1CCCO1)C(=O)COC(F)(F)F [Compound 300, (R)-N-((S)-3-cyclopropyl-1-oxo-1-(((S)-3-oxo-1-((S)-2-oxopyrrolidin-3-yl)-4-(trifluoromethoxy)butan-2-yl)amino)propan-2-yl)tetrahydrofuran-2-carboxamide]	< 0.05	–	–
O=C1NCC[C@H]1C[C@H](NC(=O)[C@@H]1CC2(CC2)CN1C(=O)C1(O)CC1)C(=O)COC(F)(F)F [Compound 420, (S)-5-(l-hydroxycyclopropane-1-carbonyl)-N-((S)-3-oxo-1-((S)-2-oxopyrrolidin-3-yl)-4-(trifluoromethoxy)butan-2-yl)-5-azaspiro[2.4]heptane-6-carboxamide]	–	0.05 to 0.2	–
